In assay [1] the target is Urokinase-type plasminogen activator (Homo sapiens, UniProt P00749). Briefly: Urokinase Amidolytic Assay. To be noted: pH 8.8. Here is the method: Buffer and 0.1 mL of enzyme solution was added to 0.2 mL of examined compounddissolved in 0.15 M NaCl (as control 0.15 M NaCl). The buffer and the enzyme solution included: Tris buffer − 0.6 mL (pH 8.8), enzyme: urokinase (50 units/mL), synthetic substrate: S-2444 (0.1 mL, 3 mM). The mixture was incubated for 3 min at 37°C. After 20 min of incubation, the reaction was stopped by adding 0.1 ml of 50% acetic acid, and the absorbance of the released p-nitroaniline was measured at 405 nm (Spekol 1300, AnalyticJena).

The next assay concerns the target Prothrombin (Homo sapiens, UniProt P00734). Briefly: Thrombin Amidolytic Assay. To be noted: pH 8.4. As to the method: Buffer and 0.1 mL of enzyme solution was added to 0.2 mL of examined compounddissolved in 0.15 M NaCl (as control 0.15 M NaCl). The buffer and the enzyme solution included: Tris buffer − 0.5 mL (pH 8.4), enzyme: thrombin (1 units/mL), synthetic substrate: S-2238 (0.2 mL, 0.75 mM). The mixture was incubated for 3 min at 37°C. After 20 min of incubation, the reaction was stopped by adding 0.1 ml of 50% acetic acid, and the absorbance of the released p-nitroaniline was measured at 405 nm (Spekol 1300, AnalyticJena).

In another assay the target is Serine protease 1 (Homo sapiens, UniProt P07477). In words: Tyrpsin Amidolytic Assay. To be noted: pH 7.5. As to the method: Buffer and 0.1 mL of enzyme solution was added to 0.2 mL of examined compounddissolved in 0.15 M NaCl (as control 0.15 M NaCl). The buffer and the enzyme solution included: […] − 0.5 mL (pH 7.5), enzyme: trypsin (0.4units/mL), synthetic substrate: Bzl-L-Arg-pNA HCl (0.2 mL, 8 mM). The mixture was incubated for 3 min at 37°C. After 20 min of incubation, the reaction was stopped by adding 0.1 ml of 50% acetic acid, and the absorbance of the released p-nitroaniline was measured at 405 nm (Spekol 1300, AnalyticJena).

For the next assay, the target named is Plasminogen (Homo sapiens, UniProt P00747). In words: Plasmin Amidolytic Assay. As to conditions: pH 7.4. Here is the method:
Buffer and 0.1 mL of enzyme solution was added to 0.2 mL of examined compounddissolved in 0.15 M NaCl (as control 0.15 M NaCl). The buffer and the enzyme solution included: Tris buffer − 0.5 mL (pH 7.4), enzyme: plasmin (0.4 units/mL), synthetic substrate: S-2251 (0.2 mL, 3 mM). The mixture was incubated for 3 min at 37°C. After 20 min of incubation, the reaction was stopped by adding 0.1 ml of 50% acetic acid, and the absorbance of the released p-nitroaniline was measured at 405 nm (Spekol 1300, AnalyticJena).

Sequence of Serine protease 1 (P07477 whole entry): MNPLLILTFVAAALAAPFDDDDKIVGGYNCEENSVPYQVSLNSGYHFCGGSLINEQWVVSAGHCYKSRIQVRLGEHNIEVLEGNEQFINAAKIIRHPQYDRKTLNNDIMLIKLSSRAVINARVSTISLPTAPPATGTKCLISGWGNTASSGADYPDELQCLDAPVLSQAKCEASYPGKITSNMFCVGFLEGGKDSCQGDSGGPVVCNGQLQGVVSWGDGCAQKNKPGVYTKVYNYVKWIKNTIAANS
Sequence of Plasminogen (P00747 97-580 limits assumed): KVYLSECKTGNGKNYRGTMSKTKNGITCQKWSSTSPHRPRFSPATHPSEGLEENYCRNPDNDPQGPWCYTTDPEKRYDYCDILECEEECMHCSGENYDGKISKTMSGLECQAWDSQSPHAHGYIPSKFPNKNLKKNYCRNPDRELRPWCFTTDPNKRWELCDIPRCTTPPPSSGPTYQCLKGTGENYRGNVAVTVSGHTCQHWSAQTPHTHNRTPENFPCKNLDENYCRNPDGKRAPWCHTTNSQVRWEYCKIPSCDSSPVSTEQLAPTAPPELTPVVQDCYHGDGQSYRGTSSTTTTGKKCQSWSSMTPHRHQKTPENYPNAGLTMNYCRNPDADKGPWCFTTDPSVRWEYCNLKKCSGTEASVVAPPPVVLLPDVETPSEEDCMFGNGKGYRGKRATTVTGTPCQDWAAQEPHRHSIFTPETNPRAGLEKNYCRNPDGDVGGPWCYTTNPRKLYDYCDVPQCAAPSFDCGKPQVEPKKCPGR
Sequence of Plasminogen (P00747 581-810 limits assumed): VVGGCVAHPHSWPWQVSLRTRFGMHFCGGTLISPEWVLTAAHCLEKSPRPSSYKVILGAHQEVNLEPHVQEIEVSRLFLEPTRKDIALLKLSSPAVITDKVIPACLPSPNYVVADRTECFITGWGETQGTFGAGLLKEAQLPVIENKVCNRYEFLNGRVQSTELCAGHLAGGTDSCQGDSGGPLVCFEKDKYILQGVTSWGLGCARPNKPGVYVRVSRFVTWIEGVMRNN

As to `N=C(N)NCCC[C@@H](NC(=O)C1(NC(=O)[C@H](N)CO)CCCCC1)C(=O)O` [H-D-Ser-1ACH-Arg-OH (8)], the inhibition constant Ki (usually the dissociation constant of the complex between target and ligand, obtained from inhibition or displacement) in assay [1] was found to be 395 µM; on Prothrombin it was 15 µM.

With `N=C(N)NCCC[C@H](NC(=O)C1(NC(=O)[C@H](N)CO)CCCCC1)C(=O)O` [H-D-Ser-1ACH-Arg-OH (8)], the Ki at Serine protease 1 amounted to 26.2 µM; at Plasminogen it was 7.7 µM.

Consider `N=C(N)NCCC[C@@H](NC(=O)[C@@H](CC1CCCCC1)NC(=O)[C@H](N)CO)C(=O)O` [H-D-Ser-Cha-Arg-OH (5)], for which the figures for the inhibition constant (Ki) (in assay [1]; at Prothrombin) were 247 µM and 19.8 µM, respectively.

Regarding `N=C(N)NCCC[C@H](NC(=O)[C@H](CC1CCCCC1)NC(=O)[C@H](N)CO)C(=O)O` [H-D-Ser-Cha-Arg-OH (5)], the Ki came out at 30.9 µM at Serine protease 1 and 8.9 µM at Plasminogen.

For `N=C(N)NCCC[C@@H](NC(=O)[C@@H](Cc1ccccc1)NC(=O)[C@H](N)CO)C(=O)O` [H-D-Ser-Phe-Arg-OH (2)], the figures for the inhibition constant (Ki) (in assay [1]; on Prothrombin) were 544 µM and 12.1 µM, respectively.

As to `N=C(N)NCCC[C@H](NC(=O)[C@H](Cc1ccccc1)NC(=O)[C@H](N)CO)C(=O)O` [H-D-Ser-Phe-Arg-OH (2)], the inhibition constant Ki at Serine protease 1 was 22.9 µM; at Plasminogen it was 8.7 µM.

With `N=C(N)NCCC[C@@H](NC(=O)[C@@H](CCC1CCCCC1)NC(=O)[C@H](N)CO)C(=O)O` [H-D-Ser-homoCha-Arg-OH (6)], the inhibition constant (Ki) in assay [1] turned out to be 451 µM; at Prothrombin, 18.1 µM.

In the case of `N=C(N)NCCC[C@H](NC(=O)[C@H](CCC1CCCCC1)NC(=O)[C@H](N)CO)C(=O)O` [H-D-Ser-homoCha-Arg-OH (6)], the Ki at Serine protease 1 came out at 27.2 µM; at Plasminogen it was 11.2 µM.

Turning to `N=C(N)NCCC[C@@H](NC(=O)[C@@H](CCc1ccccc1)NC(=O)[C@H](N)CO)C(=O)O` [H-D-Ser-homoPhe-Arg-OH (3)], the figures for the Ki (in assay [1]; on Prothrombin) were 566 µM and 16.1 µM, respectively.

`N=C(N)NCCC[C@H](NC(=O)[C@H](CCc1ccccc1)NC(=O)[C@H](N)CO)C(=O)O` [H-D-Ser-homoPhe-Arg-OH (3)]: the figures for the inhibitory constant (Ki) at Serine protease 1 and on Plasminogen were 23.9 µM and 5.9 µM, respectively.

Consider `C[C@@](Cc1ccccc1)(NC(=O)[C@H](N)CO)C(=O)N[C@@H](CCCNC(=N)N)C(=O)O` [H-D-Ser-αMePhe-Arg-OH (7)], for which the inhibition constant (Ki) was found to be 28.2 µM at Serine protease 1 and 7.9 µM at Plasminogen.

For the origin of these results see BindingDB's records for doi:10.3109/14756366.2011.651463 (Medical University of Bialystok, 2013).
